Laboratory results taken from patent US9475750B2, “Phenylketone carboxylate compounds and pharmaceutical uses thereof” (PROMETIC BIOSCIENCES INC., priority 2010, dated 2016).
Entries after “also recorded” stand apart in the source; their conditions may differ.

Tests used:
[1] = tested on: 5/6-nephrectomized (NX) rats; assay: 5/6-nephrectomy model of kidney fibrosis; type: in vivo, Wistar rats
Protocol: Male 6-week old Wistar rats were subjected to […] (5/6-NX) or sham operations. Under ketamine anesthesia (60 to 100 mg/kg, i.p.), two-thirds of the left kidney was removed on day 0 followed by the right total nephrectomy on day 7. Sham operated rats underwent exposition of the kidneys and removal of the perirenal fat. Animals that underwent the sham operation were given vehicle (saline) and were used as controls. 5/6-NX animals were treated by gastric gavage with the vehicle or Compound I administered daily at 10 and 50 mg/kg, respectively. Animals were treated from day 1 to 132 and were sacrificed at day 133. To evaluate renal function, creatinine clearance was measured at day 21 and every subsequent three weeks. Glomerular filtration rate (GFR) was then calculated. Serum urea, serum creatinine and kidney CTGF along with histological lesion score were also evaluated.

[2] = tested on: doxorubicin-induced nephrotoxicity mouse model; assay: Renal protection in doxorubicin-induced nephrotoxicity model; type: in vivo, C57BL/6 mice; conditions: for serum albumin: oral prophylactic treatment day -3 to 10, doxorubicin 10 mg/kg iv day 0, day 11 (FIG. 2)
Protocol: C57BL/6 mice (6 to 10 week old) were treated with compounds prophylacticly from day −3 to day 10. Nephrotoxicity was induced by an intravenous injection of 10 mg/kg of doxorubicin at day 0. Serum albumin was monitored at day 11.

[3] = tested on: LPS-stimulated RAW264.7 (macrophage-like) cells; assay: IL-12 production on LPS-stimulated RAW264.7 cells (ELISA); type: cell-based; conditions: in the presence of LPS
Protocol: The effect of selected compounds on IL-12 production was undertaken in RAW264.7 (macrophage-like) cells. RAW264.7 cells were cultured with 100 ng/mL of LPS in presence or absence of compounds for 21 h in a humidified atmosphere of 95% air-5% carbon dioxide at 37° C. IL-12 concentration in the culture medium was measured using the IL-12 ELISA according to the manufacturer (BD Biosciences) recommendations.

[4] = tested on: cyclophosphamide immunosuppressed mice; assay: Chemoprotection in cyclophosphamide immunosuppressed mice; type: in vivo, C57BL/6 mice; conditions: 50 mg/kg oral day -3, -2, -1, cyclophosphamide 250 mg/kg iv day 0; for red bone marrow cell count: day +5 (FIG. 6); for white bone marrow cell count: day +5 (FIG. 7)
Protocol: Female C57BL/6 mice, 6 to 8 week old, were immunosuppressed by treatment with 250 mg/kg of cyclophosphamide administered intravenously at day 0. To examine the immunoprotective effect of Compound I and Compound II, mice were pre-treated orally at day −3, −2 and −1 with 50 mg/kg of each compound. Mice were sacrificed at day +5 by cardiac puncture and cervical dislocation. Then, a gross pathological observation of the femurs (as a source of bone marrow cells) was recorded. After the sacrifice, tissues were crushed in PBS buffer and cells were counted on a hemacytometer.

[5] = tested on: human proximal tubule epithelial cells (HK-2); assay: TGF-β induced epithelial to mesenchymal transition (EMT), real-time PCR; type: cell-based
Protocol: Further analysis was undertaken to determine the effect of Compound I on EMT. The effect of Compound I on TGF-β induced EMT was analyzed on human proximal tubule epithelial cells (HK-2). To assess the progression of EMT, the pro-epithelial marker E-cadherin and the mesenchymal/pro-fibrotic markers CTGF and collagen 1 were assayed by quantitative real-time PCR. To examine the prospective efficacy of Compound I in inhibiting TGF-β-induced EMT, we first verified the ability of TGF-β to induce EMT in HK-2 cells.

[6] = tested on: Normal Human Dermal Fibroblasts (NHDF); assay: TGF-β induced CTGF production on normal human dermal fibroblasts (ELISA); type: cell-based; conditions: 10 ng/mL TGF-β, 48 h
Protocol: The effect of selected compounds on CTGF production was undertaken in NHDF. Cells were cultured in DMEM (0.5% FBS) with or without 10 ng/mL of TGF-β for 48 h in a humidified atmosphere of 95% air-5% carbon dioxide at 37° C. CTGF production in the culture medium was measured using the CTGF ELISA according to the manufacturer (Prepotech) recommendations. Table 3 represents the effect of selected representative compounds on the inhibition of TGF-βCTGF production in normal human dermal fibroblast (NHDF).

UUO rats = assay: Unilateral Ureteral Obstruction (UUO) rat model; type: in vivo, Sprague-Dawley rats
Protocol: The effect of treatment with Compound I was studied on the Unilateral Ureteral Obstruction (UUO) model, a model of kidney interstitial fibrosis. Sprague-Dawley rats were used at 6-8 weeks of age and 200-250 g in body weight. Rats were sedated by general anesthesia (isoflurane), then an incision was made in the left side of the back, and the left proximal ureter was exposed and triple-ligated. Sham-operated rats had their ureter exposed but not ligated. Rats were treated by oral gavage from day 1 to 13. Rats were sacrificed on day 14.

[7] = Compound alone, normal HK-2 cells
[8] = oral treatment, mRNA, dose-response

CCCCCCCCC(Oc1ccc(C(=O)CCCCCCC)cc1)C(=O)[O-].[Na+] (racemic) [Compound I, Sodium (RS)-2-[4-Octanoylphenoxy]decanoate]
urinary excretion of MCP-1 ([1]; 10 mg/kg, day 21 to 105 (FIG. 13)): markedly reduced; also recorded: significantly decreased (from day 84)
proteinuria ([1]; 10 mg/kg, day 63 and day 84 (FIG. 10)): reduction of proteinuria; also recorded: reduces proteinuria
serum urea ([1]; 10 and 50 mg/kg oral, day 1 to day 132 (FIG. 11)): decreased serum urea
GFR expressed as percent of improvement ([1]; 10 and 50 mg/kg oral, day 84 and day 105 (FIG. 9)): improvement of GFR at day 84 and day 105
GFR expressed as percent of improvement (renal functions) ([1]; 10 and 50 mg/kg oral, day 126 (FIG. 9)): deteriorated but to a lesser extent than that observed in the non-treated animals
serum creatinine ([1]; 10 and 50 mg/kg, day 126 (FIG. 12)): decreased serum creatinine
interstitial and glomerular fibrosis/sclerosis (histology) ([1]; 10 or 50 mg/kg (FIG. 15)): reduction of interstitial and glomerular fibrosis/sclerosis
CTGF expression in the remnant kidney (real-time PCR) ([1]; oral 10 mg/kg): decreases significantly
TGF-β expression in the remnant kidney (real-time PCR) ([1]; oral 10 mg/kg): decreases significantly
collagen 1 expression in the remnant kidney (real-time PCR) ([1]; oral 10 mg/kg): decreases significantly
α-SMA expression in the remnant kidney (real-time PCR) ([1]; oral 10 mg/kg): decreases significantly
kidney CTGF expression (Northern blot) ([1]; oral 10 mg/kg (FIG. 16)): reduction of connective tissue growth factor (CTGF) expression
need for Ringer's lactate solution over the period of treatment ([1]; oral 50 mg/kg): did not require Ringer's lactate solution
survival rate ([1]; oral 10 and 50 mg/kg (FIG. 17)): increases the survival rate
kidney IL-12p40 level ([1]; oral 10 or 50 mg/kg, relative to untreated 5/6-NX group (FIG. 14)): significant (p=0.04 at 10 mg/kg) increase in IL-12p40
GFR ([1]; oral, day 126, p=0.08 (FIG. 8)): improvement of GFR
histological micrographs of doxorubicin-induced lesions ([2]; FIG. 4): protects the kidney against doxorubicin toxicity
serum albumin [2]: inhibits the decrease of serum albumin
serum CTGF ([2]; oral treatment, p<0.01 (FIG. 5)): significant inhibition of CTGF production in serum
histological kidney lesions score ([2]; prophylactic treatment, day 11, glomerular and tubular level (FIG. 3)): reduces the kidney lesions at the glomerular and tubular level
IL-12 production under inflammatory conditions [3]: increases IL-12 production in vitro (RAW.264 cells) only when inflammation is present
red bone marrow cell count [4]: significant increase in red bone marrow cell count
white bone marrow cell count [4]: increase in white bone marrow cell count
basal expression of CTGF [5, 7]: downregulate basal expression
basal expression of collagen 1 [5, 7]: downregulate basal expression
E-cadherin transcript expression ([5]; TGF-β induced EMT cells (FIG. 20)): upregulation of E-cadherin
CTGF transcript expression ([5]; TGF-β induced EMT cells (FIG. 21)): downregulation
collagen 1 transcript expression ([5]; TGF-β induced EMT cells (FIG. 22)): downregulation
inhibition at 7.5 µM ([6]; 7.5 μM): 41%
kidney MCP-1 (UUO rats; 50 mg/kg (FIG. 19)): significantly reduced
serum albumin (UUO rats; oral 10 and 50 mg/kg, day 1 to 13 (FIG. 18)): prevented
TGF-β expression in the kidney (UUO rats; oral treatment, mRNA): reduced TGF-β expression
expression of CTGF in the kidney (UUO rats; [8]): significant dose-response inhibition
expression of collagen 1 in the kidney (UUO rats; [8]): significant dose-response inhibition

CCCCCCCC(=O)c1ccc2c(c1)CC(C(=O)O)C2 (racemic) [Compound III, Sodium (RS)-5-Octanoylindane-2-carboxylate]
inhibition at 62.5 µM ([6]; 62.5 μM): 45%

CCCCCCCCC(Oc1ccc(C(=O)CCC)cc1)C(=O)[O-].[Na+] (racemic) [Compound IX, Sodium (RS)-2-[4-Butyrylphenoxy]decanoate]
melting point: 262 to 278 °C

CCCCCCCC(=O)c1ccc(OC(CCCCCC)C(=O)[O-])cc1.[Na+] (racemic) [Compound VIII, Sodium (RS)-2-[4-Octanoylphenoxy]octanoate]
melting point: 165 to 170 °C

CCCCCCCCC(Oc1ccc(C(=O)CCCCC)cc1)C(=O)[O-].[Na+] (racemic) [Compound X, Sodium (RS)-2-[4-Hexanoylphenoxy]decanoate]
melting point: 275 to 280 °C

CCCCCCCC(=O)c1cccc2c1CC(C(=O)O)C2 (racemic) [Compound XXVI, Sodium (RS)-4-Octanoylindane-2-carboxylate]
inhibition at 100 µM ([6]; 100 μM): 59%

CCCCCCCC(=O)c1cccc(C(=O)[O-])c1.[Na+] [Compound II, Sodium 3-Octanoylbenzoate]
serum albumin [2]: inhibits the decrease of serum albumin
red bone marrow cell count [4]: significant increase in red bone marrow cell count
white bone marrow cell count [4]: increase in white bone marrow cell count
